Laboratory results: patent US20230405134A1, “NOVEL PROTAC CHIMERIC COMPOUND, AND PHARMACEUTICAL COMPOSITION COMPRISING SAME FOR PREVENTING, AMELIORATING, OR TREATING DISEASES THROUGH TARGET PROTEIN DEGRADATION” (POSTECH RESEARCH AND BUSINESS DEVELOPMENT FOUNDATION, priority 2020, published 2023)
Where a SMILES comes first, the peptide text is derived from it. Bridges are numbered along the chain shown (N, C = ends). [ ]: non-standard residue; d: D form. Cha = N[C@@H](CC1CCCCC1)C(=O)O; S5 = C=CCCC[C@](C)(N)C(=O)O

What was measured:
[1] = system: HEK293T; assay: Cell viability assay; assay type: cell-based; conditions: various concentrations, 48 hours
Protocol: To further confirm the above results, an MTT cell viability assay was performed. MDA-MB-231 (1×10^4 cells/well), HEK293T (1×10^4 cells/well) and Colo205 (2×10^4 cells/well) cells were seeded in a 96-well plate, and cultured under the conditions of 37° C. and 5% carbon dioxide. After 24 hours, the cells were washed twice with DPBS and treated with DMSO or various concentrations of ND1-YL2 in Opti-MEM medium for 48 hours. Cell viability was measured by the Cyto X cell viability assay kit (LPS solution) according to the manufacturer's instructions.

[2] = target: T1, PAS-B domain of SRC-1 (Homo sapiens, UniProt Q15788); assay: Competitive fluorescence polarization (FP) assay against fluorescently labeled STAT-6 peptide; assay type: binding; conditions: STAT-6 peptide 100 nM, PAS-B domain 5 μM
T1 construct: PAS-B domain of human SRC-1 (residues 257-385) tagged with His6; His6 (cleaved yes); made in house; host or cells: E. coli BL21 (DE3) pLysS
T1 sequence (Q15788 257-385): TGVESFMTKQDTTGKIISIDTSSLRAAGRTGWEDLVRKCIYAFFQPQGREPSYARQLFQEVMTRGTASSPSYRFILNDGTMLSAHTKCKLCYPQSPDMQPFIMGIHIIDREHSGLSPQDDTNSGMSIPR
Protocol: An expression plasmid of the PAS-B domain of human SRC-1 (residues 257-385) tagged with His6 was provided by Professor John. A. Robinson. (ChemBioChem 2008, 9, 1318-1322). The plasmid was transformed into BL21 (DE3) pLysS cells, and the protein was cultured in Luria-Bertani broth medium and induced with 0.5 mM IPTG at 18° C. for 16 hours. Cell disruption was performed by ultrasonic treatment in a buffer (50 mM Tris-HCl pH 8.0, 200 mM NaCl and 1 mM TCEP), and insoluble materials were removed by centrifugation. HisTrap™ column (GE Healthcare, 17-5255-01) chromatography was performed on the buffer and 500 mM of imidazole was applied for elution. In order to remove the His6-tag, TEV protease was used and the cleaved samples were loaded in HisTrap™ as described above. […]
A competitive fluorescence polarization (FP) assay was performed to evaluate the binding affinity of ND1-YL2 to the target protein. […] After further incubation for 1 hour, the polarization of fluorescence was measured by a Tecan F200 microplate reader (excitation wavelength: 485 nm; emission wavelength: 535 nm). IC50 values were determined using non-linear regression and fitted with GraphPad Prism® 4 software using the following equation: Y=Bottom+(Top-Bottom)/(1+10^X-LogIC50) (FIG. 11A). […] The binding affinity was calculated as described above (FIG. 11B).

[3] = system: MDA-MB-231 cells; assay: Gap closure migration assay; assay type: cell-based, human; conditions: 20 μM, 72 hours
Protocol: Based on the results that the SRC-1 degradation effectively affects the transcription mediated by SRC-1 (FIGS. 18A and 18B), it was predicted that ND1-YL2 would exert an inhibitory effect on downstream signaling pathways such as increased cancer cell migration and invasion. To test this, we first performed a gap closure migration assay using an invasive MDA-MB-231 cell line. MDA-MB-231 cells (70 μL of 4×10^5 cells/mL) were seeded in culture insert 2 wells (ibidi, 80209) pre-inserted into p-dishes (ibidi) under the conditions of 37° C. and 5% CO2. The culture insert 2 wells was gently removed with sterile tweezers. The cells were treated with DMSO, YL2 (20 […]), RLAA (20 μM) or ND1-YL2 (20 μM) in Opti-MEM medium for 72 hours. Images were obtained by a camera (Olympus) attached to an optical microscope. The cells were grown in the culture insert wells, and the inserts were removed to create intercellular gaps inside the wells. Subsequently, after treated with DMSO, YL2, RLAA peptide or ND1-YL2, the cells were cultured for 72 hours and the degree of cell migration was observed. The cell migration was quantified by analyzing the images of cells filling the gap.

[4] = system: E-cadherin; assay: E-cadherin mRNA level by RT-qPCR in MDA-MB-231 cells; assay type: cell-based, human; conditions: 12 hours
Description: The pharmacological effects on SRC-1 dependent signal transmission were explored using the previously discovered SRC-1 degrading substance. The SRC-1 is overexpressed in various cancers and plays a pivotal role in increasing cell migration and invasion by regulating the expression of related genes. Therefore, when treated with ND1-YL2, an SRC-1 degrading substance, the expression of genes stimulated by SRC-1, such as colony stimulating factor-1 (CSF-1), a gene encoding the cytokine CSF-1 that induces cell differentiation and migration, will be suppressed. To confirm this, MDA-MB-231 cells were treated with DMSO and various concentrations of ND1-YL2, YL2 or N-degron tetrapeptide for 12 hours, and the mRNA level of CSF-1 was normalized to 18S level. Confirmation was made using quantitative real-time polymerase chain reaction (RT-qPCR). MDA-MB-231 cells were seeded at 2×10^5 cells per well. After 24 hours, compounds (YL2, RLAA or ND1-YL2) were treated in Opti-MEM medium for 12 hours. Subsequently, general mRNA isolation was performed using TRI reagent (Takara), and total mRNA was isolated from the cells. The absorbance of total mRNA was measured with a Tecan F200 Nanophotometer, and reverse transcription was performed using AccuPower RocketScript Cycle RT PreMix (Bioneer). Quantitative real-time PCR for CSF-1, E-Cadherin and 18S was performed using a StepOnePlus Real-Time PCR System and SYBR Green mix (Applied Biosystems) according to the manufacturer's manual.
In addition, the effect of the ND1-YL2 on the expression of E-cadherin, a tumor suppressor gene that plays an important role in cell-cell adhesion, was tested. Since SRC-1 protein is known to suppress the E-cadherin expression, the ND1-YL2 will upregulate the E-cadherin by degrading SRC-1.

## CC(C)C[C@H](NC(=O)[C@H](C)NC(=O)[C@H](C)NC(=O)[C@H](C)NC(=O)[C@H](C)NC(=O)[C@H](CC(C)C)NC(=O)[C@@H](N)CCCNC(=N)N)C(=O)N[C@@H](CC(C)C)C(=O)N1CCC[C@H]1C(=O)N1CCC[C@H]1C(=O)N[C@H](C(=O)N[C@@H](CCC(=O)O)C(=O)N[C@@H](CCC(N)=O)C(=O)N[C@@H](CC(=O)O)C(=O)N[C@@H](CC(C)C)C(=O)N[C@@]1(C)CCC/C=C\CCC[C@@](C)(C(=O)N[C@@H](Cc2ccc(O)cc2)C(N)=O)NC(=O)[C@H](CC2CCCCC2)NC(=O)[C@H](CC(C)C)NC(=O)[C@H](CCCCN)NC1=O)[C@@H](C)O [ND1-YL2] (H-RLAAAALLPPTEQDL[S5]KL[Cha][S5]Y-NH2; staple (Z) 16-20)
[1]
  Effect on cell survival: did not significantly affect the survival
[2]
  Ki: 320 nM
[3]
  Existing gaps maintained (cell migration): about 80%
[4]
  Effect on E-cadherin expression (mRNA): dose-dependent increase
